These are literature values, as cited in patent US6875451B2, “Compositions and methods for the treatment of primary and metastatic neoplastic diseases using arsenic compounds” (PolaRx Biopharmaceuticals Inc., priority 1997, dated 2005).

The subject of the data set is cell lines representative of chronic B-cell leukemia. Conditions: cited from earlier work.

With `Nc1nc(N)nc(Nc2ccc([As]3SCC(CO)S3)cc2)n1` (stereo not shown) [melarsoprol], the apoptosis result is recorded as “induce apoptosis”.
